Measurements: the supplement of paper PMC10627819

Key:
[1] = test system: B. subtilis 168; test: Bliss interaction score (quartile over a dose matrix) (fitness difference); higher = more antagonism (negative = synergy)
Procedure, shortened: (§1)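 Each plate was normalised to the robust mean of its own no-drug wells, using OD595 at entry into stationary phase, with values capped at 1. This normalised growth is the fitness value. The Bliss score is the difference between observed and product-expected fitness, with single-drug fitness inferred from the combination data and quartiles taken over technical, biological and donor/recipient replicates.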

[2] = test system: S. pneumoniae D39V; test: as above
Procedure, shortened: as §1

[3] = test system: S. aureus Newman; test: as above
Procedure, shortened: as §1

[4] = test system: S. aureus DSM 20231; test: as above
Procedure, shortened: as §1

[5] = test system: S. pneumoniae D39V; test: fitness (endpoint OD595 vs no drug) (fraction); higher = more growth
Procedure, shortened: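 Plates with 384 wells were inoculated at OD595 0.01 using 30 µl of TSB, LB Lennox or CY, or 55 µl for S. pneumoniae. Incubation was at 37 °C, with OD595 measured every 30 min for 14 h. Fitness is the stationary-phase transition optical density over the robust mean of no-drug control wells, after first-reading background subtraction; it is capped at 1.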
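Wherever Bliss interaction score (quartile over a dose matrix) is given: first quartile when negative (synergy) and third quartile when positive (antagonism).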

COc1c(N2C[C@@H]3CCCN[C@@H]3C2)c(F)cc2c(=O)c(C(=O)O)cn(C3CC3)c12 [Moxifloxacin] + O=C1CN(/N=C/c2ccc([N+](=O)[O-])o2)C(=O)N1 [Nitrofurantoin]
Conditions	Bliss interaction score
[1]	0.0132
[2]	0.0837
[3]	-0.0496
[4]	0.0448

fitness, [5]
Conditions	first compound 0.0037 µg/mL	first compound 0.005 µg/mL	first compound 0.0075 µg/mL	first compound 0.01 µg/mL	first compound 0.015 µg/mL	first compound 0.02 µg/mL
partner 1.285 µg/mL	0.969	–	0.914	–	0.884	–
partner 2 µg/mL	–	0.972	–	0.961	–	0.893
partner 2.57 µg/mL	0.906	–	0.903	–	0.912	–
partner 4 µg/mL	–	0.949	–	0.949	–	0.879
partner 8 µg/mL	–	0.836	–	0.872	–	0.81

[5], partner 5.14 µg/mL, one replicate
Conditions	fitness
first compound 0.0037 µg/mL	0.797
first compound 0.0075 µg/mL	0.748
first compound 0.015 µg/mL	0.78

O=C1CN(/N=C/c2ccc([N+](=O)[O-])o2)C(=O)N1 [Nitrofurantoin] + C[n+]1ccc(-c2cc[n+](C)cc2)cc1 [Paraquat]
Conditions	Bliss interaction score
[1]	0.0514
[2]	0.0462
[3]	0.0529
[4]	0.0244

fitness, [5]
Conditions	partner 1.5 µg/mL	partner 3 µg/mL	partner 6 µg/mL
first compound 1.285 µg/mL	0.949	0.959	0.941
first compound 2.57 µg/mL	0.961	0.953	0.945

fitness, [5], one replicate
Conditions	first compound 2 µg/mL	first compound 4 µg/mL	first compound 5.14 µg/mL	first compound 8 µg/mL
partner 1.5 µg/mL	0.988	0.983	0.909	0.859
partner 3 µg/mL	0.965	0.968	0.927	0.871
partner 6 µg/mL	0.981	≥ 1	0.894	0.909

COc1c(N2C[C@@H]3CCCN[C@@H]3C2)c(F)cc2c(=O)c(C(=O)O)cn(C3CC3)c12 [Moxifloxacin] + CO[C@H]1/C=C/O[C@@]2(C)Oc3c(C)c(O)c4c(O)c(c(/C=N/N5CCN(C)CC5)c(O)c4c3C2=O)NC(=O)/C(C)=C\C=C\[C@H](C)[C@H](O)[C@@H](C)[C@@H](O)[C@@H](C)[C@H](OC(C)=O)[C@@H]1C [Rifampicin]
Conditions	Bliss interaction score
[1]	-0.0221
[2]	-0.0845
[3]	-0.0223
[4]	-0.0701

fitness, [5], one replicate
Conditions	first compound 0.0037 µg/mL	first compound 0.0075 µg/mL	first compound 0.015 µg/mL
partner 0.025 µg/mL	0.868	0.822	0.779
partner 0.2 µg/mL	0	0	0

fitness, [5]
Conditions	first compound 0.0037 µg/mL	first compound 0.005 µg/mL	first compound 0.0075 µg/mL	first compound 0.01 µg/mL	first compound 0.015 µg/mL	first compound 0.02 µg/mL
partner 0.05 µg/mL	0.776	0.919	0.725	0.908	0.713	0.908
partner 0.1 µg/mL	0.317	–	0.295	–	0.354	–
partner 0.2 µg/mL	–	0.168	–	0.196	–	0.198

O=C1CN(/N=C/c2ccc([N+](=O)[O-])o2)C(=O)N1 [Nitrofurantoin] + Cc1cc(NS(=O)(=O)c2ccc(N)cc2)no1 [Sulfamethoxazol]
Conditions	Bliss interaction score
[1]	0.0955
[2]	0.049
[3]	0.0591
[4]	-0.0311

fitness, [5]
Conditions	partner 1 µg/mL	partner 2 µg/mL	partner 4 µg/mL
first compound 1.285 µg/mL	0.952	0.957	0.91
first compound 2.57 µg/mL	0.942	0.948	0.944

fitness, [5], one replicate
Conditions	first compound 2 µg/mL	first compound 4 µg/mL	first compound 5.14 µg/mL	first compound 8 µg/mL
partner 1 µg/mL	0.937	0.944	0.92	0.805
partner 2 µg/mL	0.929	0.934	0.929	0.833
partner 4 µg/mL	0.842	0.859	0.927	0.768

CCC[C@@H]1C[C@@H](C(=O)N[C@@H]([C@H]2O[C@H](SC)[C@H](O)[C@@H](O)[C@H]2O)[C@H](C)Cl)N(C)C1 [Clindamycin] + O=C1CN(/N=C/c2ccc([N+](=O)[O-])o2)C(=O)N1 [Nitrofurantoin]
Conditions	Bliss interaction score
[1]	-0.113
[2]	-0.173
[3]	-0.127
[4]	-0.0327

fitness, [5]
Conditions	first compound 0.0125 µg/mL	first compound 0.015 µg/mL	first compound 0.025 µg/mL	first compound 0.03 µg/mL	first compound 0.05 µg/mL	first compound 0.06 µg/mL
partner 1.285 µg/mL	–	0.848	–	0.692	–	0.51
partner 2 µg/mL	0.583	–	0.302	–	0.0691	–
partner 2.57 µg/mL	–	0.886	–	0.708	–	0.445
partner 4 µg/mL	0.503	–	0.224	–	0.0581	–
partner 8 µg/mL	0.339	–	0.126	–	0.0351	–

[5], partner 5.14 µg/mL, one replicate
Conditions	fitness
first compound 0.015 µg/mL	0.809
first compound 0.03 µg/mL	0.685
first compound 0.06 µg/mL	0.319

CC[C@H]1OC(=O)[C@H](C)[C@@H](O[C@H]2C[C@@](C)(OC)[C@@H](O)[C@H](C)O2)[C@H](C)[C@@H](O[C@@H]2O[C@H](C)C[C@H](N(C)C)[C@H]2O)[C@](C)(OC)C[C@@H](C)C(=O)[C@H](C)[C@@H](O)[C@]1(C)O [Clarithromycin] + CCC[C@@H]1C[C@@H](C(=O)N[C@@H]([C@H]2O[C@H](SC)[C@H](O)[C@@H](O)[C@H]2O)[C@@H](C)O)N(C)C1 [Lincomycin]
Conditions	Bliss interaction score
[1]	0.103
[2]	0.0426
[3]	-0.144
[4]	-0.12

fitness, [5], one replicate
Conditions	first compound 0.007812 µg/mL	first compound 0.01562 µg/mL	first compound 0.03125 µg/mL
partner 0.2 µg/mL	0.614	0.678	0.559
partner 0.4 µg/mL	0.545	0.619	0.395
partner 0.8 µg/mL	0.0517	0.0966	0.0574

fitness, [5]
Conditions	first compound 0.0625 µg/mL	first compound 0.07 µg/mL	first compound 0.125 µg/mL	first compound 0.14 µg/mL	first compound 0.25 µg/mL	first compound 0.28 µg/mL
partner 0.2 µg/mL	–	0.0703	–	0.063	–	0.0359
partner 0.215 µg/mL	0.656	–	0.487	–	0.328	–
partner 0.4 µg/mL	–	0.0783	–	0.0665	–	0.035
partner 0.43 µg/mL	0.599	–	0.367	–	0.262	–
partner 0.8 µg/mL	–	0.0297	–	0.0353	–	0.0359
partner 0.86 µg/mL	0.269	–	0.131	–	0.0936	–

C[C@@H](O)[C@H]1C(=O)N2C(C(=O)O)=C(SCCNC=N)C[C@H]12 [Imipenem] + Cc1onc(-c2ccccc2)c1C(=O)N[C@@H]1C(=O)N2[C@@H]1SC(C)(C)[C@@H]2C(=O)O [Oxacillin]
Conditions	Bliss interaction score
[1]	-0.048
[2]	0.0736
[3]	0.0474
[4]	-0.0527

fitness, [5]
Conditions	first compound 0.005 µg/mL	first compound 0.0065 µg/mL	first compound 0.01 µg/mL	first compound 0.013 µg/mL	first compound 0.02 µg/mL	first compound 0.026 µg/mL
partner 0.01 µg/mL	0.963	0.968	0.983	0.996	0.95	0.956
partner 0.02 µg/mL	0.92	0.845	0.933	0.902	0.905	0.812
partner 0.04 µg/mL	0.524	0.0658	0.511	0.171	0.468	0.109

CC[C@H]1OC(=O)[C@H](C)[C@@H](O[C@H]2C[C@@](C)(OC)[C@@H](O)[C@H](C)O2)[C@H](C)[C@@H](O[C@@H]2O[C@H](C)C[C@H](N(C)C)[C@H]2O)[C@](C)(OC)C[C@@H](C)C(=O)[C@H](C)[C@@H](O)[C@]1(C)O [Clarithromycin] + CN1C2=CC=CC=C2N=C3C1=CC=CC3=O [Pyocyanin]
Conditions	Bliss interaction score
[1]	0.0334
[2]	-0.0433
[3]	-0.0697
[4]	-0.0903

fitness, [5], one replicate
Conditions	first compound 0.007812 µg/mL	first compound 0.01562 µg/mL	first compound 0.03125 µg/mL	first compound 0.0625 µg/mL	first compound 0.125 µg/mL	first compound 0.25 µg/mL
partner 0.325 µg/mL	0.965	0.884	0.682	0.757	0.486	0.112
partner 0.65 µg/mL	0.928	0.88	0.651	0.75	0.501	0.273
partner 1.3 µg/mL	0.747	0.695	0.525	–	–	–

fitness, [5]
Conditions	first compound 0.07 µg/mL	first compound 0.14 µg/mL	first compound 0.28 µg/mL
partner 0.325 µg/mL	0.0912	0.0902	0.0525
partner 0.65 µg/mL	0.0867	0.0888	0.0453
partner 1.3 µg/mL	0.0798	0.0783	0.0672

CCC[C@@H]1C[C@@H](C(=O)N[C@@H]([C@H]2O[C@H](SC)[C@H](O)[C@@H](O)[C@H]2O)[C@H](C)Cl)N(C)C1 [Clindamycin] + CN(C)[C@@H]1C(O)=C(C(N)=O)C(=O)[C@@]2(O)C(O)=C3C(=O)c4c(O)ccc(Cl)c4[C@@](C)(O)[C@H]3C[C@@H]12 [Clortetracycline]
Conditions	Bliss interaction score
[1]	-0.212
[2]	-0.0954
[3]	-0.191
[4]	-0.0617

CC(=O)O[C@H]1C[C@@]2(C)[C@@H](C[C@@H](O)[C@H]3[C@@]4(C)CC[C@@H](O)[C@@H](C)[C@@H]4CC[C@@]32C)/C1=C(\CCC=C(C)C)C(=O)O [Fusidic acid] + Clc1ccc(COC(Cn2ccnc2)c2ccc(Cl)cc2Cl)c(Cl)c1 [Miconazole]
Conditions	Bliss interaction score
[1]	-0.0605
[2]	-0.117
[3]	-0.0399
[4]	0.0483

CC(=O)O[C@H]1C[C@@]2(C)[C@@H](C[C@@H](O)[C@H]3[C@@]4(C)CC[C@@H](O)[C@@H](C)[C@@H]4CC[C@@]32C)/C1=C(\CCC=C(C)C)C(=O)O [Fusidic acid] + Oc1cc(Cl)ccc1Oc1ccc(Cl)cc1Cl [Triclosan]
Conditions	Bliss interaction score
[1]	0.0422
[2]	0.124
[3]	0.0305
[4]	-0.0259

N[C@@H]1CONC1=O [CycloserineD] + O=C(O[C@@H]1Cc2c(O)cc(O)cc2O[C@@H]1c1cc(O)c(O)c(O)c1)c1cc(O)c(O)c(O)c1 [EGCG]
Conditions	Bliss interaction score
[1]	-0.114
[2]	-0.0875
[3]	0.0286
[4]	-0.107

O=C(N[C@H](CO)[C@H](O)c1ccc([N+](=O)[O-])cc1)C(Cl)Cl [Chloramphenicol] + CC1(C)S[C@@H]2[C@H](NC(=O)Cc3ccccc3)C(=O)N2[C@H]1C(=O)O [PenicillinG]
Conditions	Bliss interaction score
[1]	0.0719
[2]	-0.0461
[3]	-0.0428
[4]	0.0631

CC(=O)OC[C@H]1O[C@@H]([S-])[C@H](OC(C)=O)[C@@H](OC(C)=O)[C@@H]1OC(C)=O.CCP(CC)CC.[Au+] [Auranofin] + CC(=O)NC[C@H]1CN(c2ccc(N3CCOCC3)c(F)c2)C(=O)O1 [Linezolid]
Conditions	Bliss interaction score
[1]	-0.0379
[2]	-0.104
[3]	0.067
[4]	0.0191
